According to ChEMBL document CHEMBL1134054, “p38 kinase inhibitors for the treatment of arthritis and osteoporosis: thienyl, furyl, and pyrrolyl ureas” (Bioorg Med Chem Lett, 2001):
pIC50: −log10 of the molar value.

Tests used:
[1] = biological target: T1, Mitogen-activated protein kinase 14 (Homo sapiens, UniProt Q16539); test: Percent inhibition determined in vitro against mitogen-activated protein kinase p38 alpha 2 derived from Escherichia coli at 5 uM
[2] = biological target: T1, Mitogen-activated protein kinase 14; test: In vitro inhibition of mitogen-activated protein kinase p38 alpha 2 derived from Escherichia coli
SW1353 = test: Inhibition of IL-6 production by SW1353 cells treated with both cytokines IL-1 and TNF-alpha.; assay type: functional, cell-based; conditions: Homo sapiens
[3] = biological target: T1, Mitogen-activated protein kinase 14; test: Inhibition of Mitogen-activated protein kinase p38 alpha 2
[4] = biological target: T1, Mitogen-activated protein kinase 14; test: Inhibition of p38 alpha-2 kinase

T1 sequence (Q16539 whole entry): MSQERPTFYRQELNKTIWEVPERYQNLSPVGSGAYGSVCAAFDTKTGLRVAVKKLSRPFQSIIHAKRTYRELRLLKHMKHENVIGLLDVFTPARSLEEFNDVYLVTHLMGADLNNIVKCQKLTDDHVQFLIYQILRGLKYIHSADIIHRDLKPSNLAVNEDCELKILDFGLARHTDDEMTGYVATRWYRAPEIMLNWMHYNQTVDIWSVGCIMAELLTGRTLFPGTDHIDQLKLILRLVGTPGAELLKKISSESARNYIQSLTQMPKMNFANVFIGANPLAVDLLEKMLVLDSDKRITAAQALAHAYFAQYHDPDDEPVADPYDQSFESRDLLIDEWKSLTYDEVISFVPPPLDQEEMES

| SMILES | inhibition [1] | pIC50 [2] | other results |
| --- | --- | --- | --- |
| COC(=O)c1sc(C(C)(C)C)cc1NC(=O)Nc1ccc(NC(C)=O)cc1 | 23% |  |  |
| CNC(=O)c1sc(C(C)(C)C)cc1NC(=O)Nc1ccc(C(C)C)cc1 | 63% | 6.57 |  |
| CNC(=O)c1[nH]c(C(C)(C)C)cc1NC(=O)Nc1ccc(C)cc1 |  | 7.17 | pIC50 (SW1353): 7.82 |
| COC(=O)c1[nH]c(C(C)(C)C)cc1NC(=O)Nc1ccc(C)cc1 |  | 7.48 | pIC50 (SW1353): 5.94 |
| COC(=O)c1oc(C(C)(C)C)cc1NC(=O)Nc1cccc(Cl)c1Cl | 97% | 7.49 |  |
| COC(=O)c1sc(CC(C)C)cc1NC(=O)Nc1ccc(C)cc1 | 0% |  |  |
| COC(=O)c1c(NC(=O)Nc2cccc3ccccc23)cc(C(C)(C)C)n1C | 67% | 6.60 |  |
| COC(=O)c1oc(C(C)(C)C)cc1NC(=O)Nc1ccc(F)cc1 | 67% | 6.68 |  |
| COC(=O)c1oc(C(C)(C)C)cc1NC(=O)Nc1ccc(Cl)c(Cl)c1 |  | 5.92 |  |
| COC(=O)c1sc(C(C)(C)C)cc1NC(=O)Nc1ccc(-c2ccccc2)cc1 | 6% |  |  |
| CCc1ccc(NC(=O)Nc2cc(C(C)(C)C)sc2C(=O)NC)cc1 | 70% | 6.92 |  |
| COC(=O)c1sc(C(C)(C)O)cc1NC(=O)Nc1ccc(C)cc1 | 34% |  |  |
| COCCOC(=O)c1sc(C(C)(C)C)cc1NC(=O)Nc1ccc(C)cc1 |  |  | pIC50 [3]: 6.33 |
| Cc1ccc(NC(=O)Nc2cc(C(C)(C)C)sc2C(=O)OC(C)C)cc1 |  |  | pIC50 [3]: 6.13 |
| CNC(=O)c1sc(C(C)(C)C)cc1NC(=O)Nc1ccc(F)cc1 | 80% | 7.06 |  |
| COC(=O)c1c(NC(=O)Nc2ccccc2)cc(C(C)(C)C)n1C | 32% | 6.02 |  |
| COC(=O)c1sc(C(C)(C)C)cc1NC(=O)Nc1ccc(C(C)C)cc1 | 10% |  |  |
| CNC(=O)c1oc(C(C)(C)C)cc1NC(=O)Nc1ccc(C)cc1 |  | 7.49 |  |
| CNC(=O)c1[nH]c(C(C)(C)C)cc1NC(=O)Nc1cccc(Cl)c1Cl | 95% | 7.36 | pIC50 (SW1353): 7.80 |
| COC(=O)c1sc(CCC(C)C)cc1NC(=O)Nc1ccc(C)cc1 | 8% |  |  |
| Cc1ccc(NC(=O)Nc2cc(C(C)(C)C)sc2C(=O)OCCO)cc1 |  |  | pIC50 [3]: 7.24 |
| COC(=O)c1sc(N)cc1NC(=O)Nc1ccc(C)cc1 | 90% |  | pIC50 [3]: 6.36 |
| COC(=O)c1[nH]c(C(C)(C)C)cc1NC(=O)Nc1cccc2ccccc12 |  | 7.92 | pIC50 (SW1353): 6.51 |
| COC(=O)c1c(NC(=O)Nc2cccc(Cl)c2Cl)cc(C(C)(C)C)n1C | 50% | 6.41 |  |
| COC(=O)c1[nH]c(C(C)(C)C)cc1NC(=O)Nc1ccccc1Cl | 85% | 7.22 |  |
| COC(=O)COC(=O)c1sc(C(C)(C)C)cc1NC(=O)Nc1ccc(C)cc1 |  |  | pIC50 [3]: 5.27 |
| CCc1ccc(NC(=O)Nc2cc(C(C)(C)C)sc2C(=O)OC)cc1 | 40% | 6.18 |  |
| COC(=O)c1sc(C(C)C)cc1NC(=O)Nc1ccc(C)cc1 | 37% |  |  |

| SMILES | inhibition [1] | pIC50 [2] | other results |
| --- | --- | --- | --- |
| CNC(=O)c1sc(C(C)(C)C)cc1NC(=O)Nc1ccc(C)cc1 |  |  | pIC50 [3]: 7.47; pIC50 (SW1353): 5.87 |
| CCCOC(=O)c1sc(C(C)(C)C)cc1NC(=O)Nc1ccc(C)cc1 |  |  | pIC50 [3]: 6.32 |
| COC(=O)c1sc(C(C)(C)C)cc1NC(=O)Nc1ccc(C(=O)O)cc1 | 4% |  |  |
| COC(=O)c1sc(C(C)(C)C)cc1NC(=O)Nc1ccc(O)cc1 | 44% | 6.21 |  |
| CCOC(=O)c1sc(C(C)(C)C)cc1NC(=O)Nc1ccc(C)cc1 |  |  | pIC50 [3]: 5.52 |
| COC(=O)c1c(NC(=O)Nc2ccc(C)cc2)cc(C(C)(C)C)n1C |  | 6.40 |  |
| CNC(=O)c1[nH]c(C(C)(C)C)cc1NC(=O)Nc1cccc2ccccc12 | 96% | 7.55 | pIC50 (SW1353): 7.46 |
| COC(=O)c1sc(C(C)(C)C)cc1NC(=O)Nc1ccc(C(C)=O)cc1 | 21% |  |  |
| COC(=O)c1sc(C(C)(C)C)cc1NC(=O)Nc1ccc(N)cc1 | 40% | 6.12 |  |
| COC(=O)c1[nH]c(C(C)(C)C)cc1NC(=O)Nc1ccc(Cl)cc1 | 92% | 7.37 |  |
| COC(=O)c1sc(CCc2ccccc2)cc1NC(=O)Nc1ccc(C)cc1 | 17% |  |  |
| COC(=O)c1sc(C(C)(C)C)cc1NC(=O)Nc1ccc(Cl)cc1 | 76% | 6.66 |  |
| COC(=O)c1sc(C(C)(C)C)cc1NC(=O)Nc1ccc([N+](=O)[O-])cc1 | 16% |  |  |
| COC(=O)c1[nH]c(C(C)(C)C)cc1NC(=O)Nc1cccc(Cl)c1Cl | 99% | 8.22 | pIC50 (SW1353): 7.10 |
| COC(=O)c1sc(C(C)(C)C)cc1NC(=O)Nc1ccc(C)cc1 | 94% |  | pIC50 [3]: 6.38; pIC50 (SW1353): 6.04; pIC50 [4]: 6.61 |
| COC(=O)c1sc(C(C)(C)C)cc1NC(=O)Nc1ccc(F)cc1 | 35% | 6.08 |  |
| COC(=O)c1oc(C(C)(C)C)cc1NC(=O)Nc1ccc(C)cc1 |  | 7.14 | pIC50 (SW1353): 6.47 |
| COC(=O)c1c(NC(=O)Nc2ccc(F)cc2)cc(C(C)(C)C)n1C | 42% | 6.18 |  |
| COC(=O)c1[nH]c(C(C)(C)C)cc1NC(=O)Nc1ccc(F)cc1 | 89% | 7.38 | pIC50 (SW1353): 6.33 |
| COC(=O)c1[nH]c(C(C)(C)C)cc1NC(=O)Nc1ccccc1 |  | 7.36 |  |
| COC(=O)c1[nH]c(C(C)(C)C)cc1NC(=O)Nc1cccc(Cl)c1 | 95% | 7.57 |  |
| COC(=O)c1sc(C(C)(C)C)cc1NC(=O)Nc1cccc(Cl)c1Cl | 79% | 6.74 |  |
| Cc1ccc(NC(=O)Nc2cc(C(C)(C)C)sc2C(=O)OCCCO)cc1 |  |  | pIC50 [3]: 7.25 |
| COC(=O)c1sc(C(C)(C)C)cc1NC(=O)Nc1ccc(OC)cc1 | 8% |  |  |
| COC(=O)c1sc(C(C)(C)C)cc1NC(=O)Nc1ccccc1 | 68% | 6.54 |  |
| COC(=O)c1sc(-c2ccccc2)cc1NC(=O)Nc1ccc(C)cc1 | 0% |  |  |
| COC(=O)c1sc([N+](=O)[O-])cc1NC(=O)Nc1ccc(C)cc1 | 0% |  |  |
